Measured values: patent US20240158446A1, “CYCLIC COMPOUND HAVING SELECTIVE INHIBITORY ACTION ON KRAS OVER HRAS AND NRAS” (CHUGAI SEIYAKU KABUSHIKI KAISHA, priority 2021, published 2024)
Read-outs that look alike come from different tables or passages of the source. Where a SMILES comes first, the peptide text is derived from it. Bridges are numbered along the chain shown (N, C = ends). [ ]: non-standard residue; d: D form. The star is where a group is joined. hPhe(3-Cl-4-CF3) = N[C@@H](CCc1ccc(C(F)(F)F)c(Cl)c1)C(=O)O; NPrPhe(4-CF3) = CCCN[C@@H](Cc1ccc(C(F)(F)F)cc1)C(=O)O; 3Oxa8azabicyclo(3.2.1)octane = C1CC2COCC1N2*; NMeGly(cPent) = CN[C@H](C(=O)O)C1CCCC1; NMeD = CN[C@@H](CC(=O)O)C(=O)O; NMeL = CN[C@@H](CC(C)C)C(=O)O; Ac5c = NC1(C(=O)O)CCCC1; Sar = CNCC(=O)O

How the values were obtained:
[1] = target: GDP-bound KRAS wild-type protein (Homo sapiens, UniProt P01116); assay: Binding to KRAS by surface plasmon resonance (SPR), Single Cycle Kinetics; details: GDP-bound KRAS wild-type protein, read-out: KRAS KD
[2] = tested on: human lung cancer strain NCI-H441;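 further: cell proliferation inhibition after four days measured by CellTiter-Glo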
[3] = target: GDP-bound HRAS wild-type protein (Homo sapiens, UniProt P01112); assay: Binding to HRAS by surface plasmon resonance (SPR), Single Cycle Kinetics; details: for HRAS/KRAS (ratio of KD value for HRAS to KD value for KRAS): SPR, GDP-bound HRAS wild-type protein vs GDP-bound KRAS wild-type protein; for HRAS/KRAS (ratio of KD value with respect to GDP-bound HRAS wild-type protein to KD value with respect to KRAS): SPR KD ratio HRAS/KRAS, class symbols
[4] = target: GDP-bound NRAS wild-type protein (Homo sapiens, UniProt P01111); assay: Binding to NRAS by surface plasmon resonance (SPR), Single Cycle Kinetics; details: for NRAS/KRAS (ratio of KD value for NRAS to KD value for KRAS): SPR, GDP-bound NRAS wild-type protein vs GDP-bound KRAS wild-type protein; for NRAS/KRAS (ratio of KD value with respect to GDP-bound NRAS wild-type protein to KD value with respect to KRAS): SPR KD ratio NRAS/KRAS, class symbols
[5] = SPR Single Cycle Kinetics, 1:1 binding model
[6] = SPR, Single Cycle Kinetics, 1:1 binding model

Sequence of GDP-bound NRAS wild-type protein (P01111 whole entry): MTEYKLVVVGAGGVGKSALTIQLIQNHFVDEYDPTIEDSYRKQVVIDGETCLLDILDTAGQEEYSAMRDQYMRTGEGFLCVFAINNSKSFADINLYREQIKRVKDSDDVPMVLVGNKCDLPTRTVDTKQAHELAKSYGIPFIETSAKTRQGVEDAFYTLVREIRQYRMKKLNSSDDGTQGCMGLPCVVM
Sequence of GDP-bound HRAS wild-type protein (P01112 whole entry): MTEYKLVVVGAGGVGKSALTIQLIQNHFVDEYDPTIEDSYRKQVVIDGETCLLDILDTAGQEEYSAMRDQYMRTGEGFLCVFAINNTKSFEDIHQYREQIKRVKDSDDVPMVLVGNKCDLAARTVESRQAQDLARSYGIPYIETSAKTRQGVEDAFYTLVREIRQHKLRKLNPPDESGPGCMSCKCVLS
Sequence of GDP-bound KRAS wild-type protein (P01116 whole entry): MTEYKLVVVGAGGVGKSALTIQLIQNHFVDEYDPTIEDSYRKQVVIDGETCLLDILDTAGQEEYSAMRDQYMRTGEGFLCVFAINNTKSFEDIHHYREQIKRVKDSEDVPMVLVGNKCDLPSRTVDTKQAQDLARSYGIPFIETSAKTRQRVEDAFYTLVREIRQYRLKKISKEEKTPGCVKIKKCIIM

| SMILES | Kd [1, 5] [nM] | IC50 [2] [nM] | HRAS/KRAS (ratio of KD value for HRAS to KD value for KRAS) [3] | NRAS/KRAS (ratio of KD value for NRAS to KD value for KRAS) [4] | Kd ([1]; SPR, Single Cycle Kinetics) [nM] | HRAS/KRAS (ratio of KD value with respect to GDP-bound HRAS wild-type protein to KD value with respect to KRAS) [3] | NRAS/KRAS (ratio of KD value with respect to GDP-bound NRAS wild-type protein to KD value with respect to KRAS) [4] | Kd [1, 6] [nM] | HRAS/KRAS (ratio of KD value for HRAS to KD value for KRAS) ([3]; KD ratio class) | NRAS/KRAS (ratio of KD value for NRAS to KD value for KRAS) ([4]; KD ratio class) |
| --- | --- | --- | --- | --- | --- | --- | --- | --- | --- | --- |
| CCCN1C(=O)CN(C)C(=O)CN(C)C(=O)[C@H]([C@@H](C)CC)NC(=O)[C@H](CC(C)C)N(C)C(=O)C[C@@H](C(=O)N2C3CCC2COC3)N(C)C(=O)[C@H](C2CCCC2)N(C)C(=O)C2(CCCC2)NC(=O)[C@@H]2CCCN2C(=O)[C@H](CCc2ccc(C(F)(F)F)c(Cl)c2)NC(=O)CN(C)C(=O)[C@@H]1Cc1ccc(C(F)(F)F)cc1 [PP0173] ([NMeL]I[Sar][Sar][NPrPhe(4-CF3)][Sar][hPhe(3-Cl-4-CF3)]P[Ac5c][NMeGly(cPent)][NMeD]-{3Oxa8azabicyclo(3.2.1)octane}; lactam N-11) | 0.67 | 11.6 | C (A compound having a KD ratio of 0.1 or more and less than 3 is denoted as C) | B (a compound having 3 or more and less than 10 is denoted as B) | – | – | – | – | – | – |
| CCO[C@@H]1C[C@H]2C(=O)NC3(CC(C)(C)C3)C(=O)N(C)[C@@H](C(CC)CC)C(=O)N(C)[C@H](C(=O)N(C)C)CC(=O)N(C)[C@@H](COC)C(=O)N[C@@H]([C@@H](C)CC)C(=O)N(C)CC(=O)N(C)[C@H]3C/C=C\CCN(C3=O)[C@@H](CC3CCC(F)(F)CC3)C(=O)N(C)CC(=O)N[C@@H](CCc3ccc(C(F)(F)F)c(Cl)c3)C(=O)N2C1 [PP2444] | – | 32.3 | A (a compound having 10 or more and less than 20 is denoted as A) | A (a compound having 10 or more and less than 20 is denoted as A) | 0.59 | – | – | – | – | – |
| CCO[C@@H]1C[C@H]2C(=O)NC3(CC(C)(C)C3)C(=O)N(C)[C@@H](C(CC)CC)C(=O)N(C)[C@H](C(=O)N3CCCCC3)CC(=O)N(C)[C@@H](COC)C(=O)N[C@@H]([C@@H](C)CC)C(=O)N(C)CC(=O)N(C)[C@H]3C/C=C\CCN(C3=O)[C@@H](Cc3ccc(C(F)(F)F)cc3)C(=O)N(C)CC(=O)N[C@@H](CCc3ccc(Cl)c(Cl)c3)C(=O)N2C1 [PP2610] | 1.3 | 126 | – | – | – | A (a compound having 10 or more and less than 20 is denoted as A) | AA (a compound having 20 or more is denoted as AA) | – | – | – |
| CCO[C@@H]1C[C@H]2C(=O)NC3(COC3)C(=O)N(C)[C@@H](C3CCCC3)C(=O)N(C)[C@H](C(=O)N(C)C)CC(=O)N(C)[C@@H](CC)C(=O)N[C@@H]([C@@H](C)CC)C(=O)N(C)CC(=O)N(C)[C@H]3C/C=C\CCN(C3=O)[C@@H](Cc3ccc(C(F)(F)F)cc3)C(=O)N(C)CC(=O)N[C@@H](CCc3cc(F)c(C(F)(F)F)c(F)c3)C(=O)N2C1 [PP1278, (2S,8S,12R,14S,20S,23S,27S,30S,36S,38Z)-20-cyclopentyl-8-[2-[3,5-difluoro-4-(trifluoromethyl)phenyl]ethyl]-12-ethoxy-27-ethyl-N,N,4,19,22,26,32,35-octamethyl-30-[(1S)-1-methylpropyl]-3,6,9,15,18,21,25,28,31,34,42-undecaoxo-2-[[4-(trifluoromethyl)phenyl]methyl]spiro[1,4,7,10,16,19,22,26,29,32,35-undecazatricyclo[34.5.1.0^10,14]dotetracont-38-ene-17,3′-oxetane]-23-carboxamide] | – | 45.7 | – | – | – | – | – | 0.14 | B (a compound having 3 or more and less than 10 is denoted as B) | A (a compound having 10 or more and less than 20 is denoted as A) |
| CCC[C@H]1C(=O)N[C@@H]([C@@H](C)CC)C(=O)N(C)CC(=O)N(C)[C@H]2C/C=C\CCN(C2=O)[C@@H](Cc2ccc(C(F)(F)F)cc2)C(=O)N(C)CC(=O)N[C@@H](CCc2ccc(Cl)c(Cl)c2)C(=O)N2C[C@H](OCC)C[C@H]2C(=O)NC2(CCC2)C(=O)N(C)[C@@H](C2CCCC2)C(=O)N(C)[C@H](C(=O)N(C)C)CC(=O)N1C [PP1250] | – | 18.7 | – | – | – | – | – | 0.19 | A (a compound having 10 or more and less than 20 is denoted as A) | AA (a compound having 20 or more is denoted as AA) |
| CC[C@H](C)[C@@H]1NC(=O)[C@H](COC)N(C)C(=O)C[C@@H](C(=O)N(C)C)N(C)C(=O)[C@H](C2CCCC2)N(C)C(=O)C2(CC(C)(C)C2)NC(=O)[C@@H]2C[C@@H](OC3CCC3)CN2C(=O)[C@H](CCc2cc(F)c(C(F)(F)F)c(F)c2)NC(=O)CN(C)C(=O)[C@H](CC2CCCCC2)N2CC/C=C\C[C@@H](C2=O)N(C)C(=O)CN(C2CC2)C1=O [PP2618] | 1.4 | 69.5 | – | – | – | A (a compound having 10 or more and less than 20 is denoted as A) | A (a compound having 10 or more and less than 20 is denoted as A) | – | – | – |
| CCC[C@H]1C(=O)N[C@@H]([C@@H](C)CC)C(=O)N(C)CC(=O)N(C)[C@H]2C/C=C\CCN(C2=O)[C@@H](CC2CCC(F)(F)CC2)C(=O)N(C)CC(=O)N[C@@H](CCc2ccc(C(F)(F)F)c(OC)c2)C(=O)N2C[C@@H](C)C[C@H]2C(=O)NC2(CC(C)(C)C2)C(=O)N(C)[C@@H](C(CC)CC)C(=O)N(C)[C@H](C(=O)N(C)C)CC(=O)N1C [PP2497] | – | 84.8 | A (a compound having 10 or more and less than 20 is denoted as A) | A (a compound having 10 or more and less than 20 is denoted as A) | 1.5 | – | – | – | – | – |
| CC[C@H](C)[C@@H]1NC(=O)[C@H](COC)N(C)C(=O)C[C@@H](C(=O)N(CC)CC)N(C)C(=O)[C@H](C2CCCC2)N(C)C(=O)C2(CC(C)(C)C2)NC(=O)[C@@H]2C[C@H](C)CN2C(=O)[C@H](CCc2cc(F)c(C(F)(F)F)c(F)c2)NC(=O)CN(C)C(=O)[C@H](Cc2ccc(C)cc2)N2CC/C=C\C[C@@H](C2=O)N(C)C(=O)CN(C)C1=O [PP2455] | – | 23.4 | A (a compound having 10 or more and less than 20 is denoted as A) | AA (a compound having 20 or more is denoted as AA) | 0.32 | – | – | – | – | – |
| CCCOC[C@H]1C(=O)N[C@@H]([C@@H](C)CC)C(=O)N(C)CC(=O)N(C)[C@H]2C/C=C\CCN(C2=O)[C@@H](CC2CCC(F)(F)CC2)C(=O)N(C)CC(=O)N[C@@H](CCc2ccc(C(F)(F)F)c(Cl)c2)C(=O)N2C[C@H](OCC)C[C@H]2C(=O)NC2(CC(C)(C)C2)C(=O)N(C)[C@@H](C(CC)CC)C(=O)N(C)[C@H](C(=O)N(C)C)CC(=O)N1C [PP2484] | – | 74.3 | A (a compound having 10 or more and less than 20 is denoted as A) | A (a compound having 10 or more and less than 20 is denoted as A) | 1 | – | – | – | – | – |
| CCCOC[C@H]1C(=O)N[C@@H]([C@@H](C)CC)C(=O)N(C)CC(=O)N(C)[C@H]2C/C=C\CCN(C2=O)[C@@H](Cc2ccc(C)cc2)C(=O)N(C)CC(=O)N[C@@H](CCc2ccc(C(F)(F)F)c(Cl)c2)C(=O)N2C[C@H](OCC)C[C@H]2C(=O)NC2(CC(C)(C)C2)C(=O)N(C)[C@@H](C2CCCC2)C(=O)N(C)[C@H](C(=O)N(C)C)CC(=O)N1C [PP2402] | – | 10.6 | A (a compound having 10 or more and less than 20 is denoted as A) | A (a compound having 10 or more and less than 20 is denoted as A) | 0.092 | – | – | – | – | – |
| CCO[C@@H]1C[C@H]2C(=O)NC3(CCC3)C(=O)N(C)[C@@H](C3CCCC3)C(=O)N(C)[C@H](C(=O)N(C)C)CC(=O)N(C)[C@@H](CC)C(=O)N[C@@H]([C@@H](C)CC)C(=O)N(C)CC(=O)N(C)[C@H]3CCCCCN(C3=O)[C@@H](Cc3ccc(C(F)(F)F)cc3)C(=O)N(C)CC(=O)N[C@@H](CCc3ccc4sccc4c3)C(=O)N2C1 [PP0892] | – | 53.6 | B (a compound having 3 or more and less than 10 is denoted as B) | B (a compound having 3 or more and less than 10 is denoted as B) | 0.33 | – | – | – | – | – |
| CCC[C@H]1C(=O)N[C@@H]([C@@H](C)CC)C(=O)N(C)CC(=O)N(C)[C@H]2C/C=C\CCN(C2=O)[C@@H](Cc2ccc(C)cc2)C(=O)N(C)CC(=O)N[C@@H](CCc2ccc(Cl)c(Cl)c2)C(=O)N2C[C@H](OC(C)C)C[C@H]2C(=O)NC2(CC(C)(C)C2)C(=O)N(C)[C@@H](C(CC)CC)C(=O)N(C)[C@H](C(=O)N(C)C)CC(=O)N1C [PP2537] | 0.74 | 75.1 | – | – | – | A (a compound having 10 or more and less than 20 is denoted as A) | AA (a compound having 20 or more is denoted as AA) | – | – | – |
